From the NIST ThermoML archive (doi:10.1021/acs.jced.5b00627)

Legend:
[1] = for Normal melting temperature: Crystal, DTA; for viscosity: 100 kPa, Capillary tube (Ostwald / Ubbelohde) method; for viscosity / speed of sound / mass density: Liquid; for speed of sound / mass density: 101.33 kPa; for speed of sound: Sing-around technique in a fixed-path interferometer; for mass density: Vibrating tube method
[2] = mn = molality of the nth substance listed, in mol/kg; details: 100 kPa, Liquid; for viscosity: Capillary tube (Ostwald / Ubbelohde) method; for speed of sound: Frequency=3 MHz, Sing-around technique in a fixed-path interferometer; for mass density: Vibrating tube method

COc1cc(-c2cc(-c3ccc(Cl)cc3)[nH]c(=O)c2C#N)ccc1O
Details | Normal melting temperature [°C]
[1] | 328.34

COc1cc(-c2cc(-c3ccc(O)cc3)[nH]c(=O)c2C#N)ccc1O
Details | Normal melting temperature [°C]
[1] | 326.33

COc1cc(-c2cc(-c3ccccc3)[nH]c(=O)c2C#N)ccc1O
Details | Normal melting temperature [°C]
[1] | 343.12

COc1cc(-c2cc(-c3ccccc3O)[nH]c(=O)c2C#N)ccc1O
Details | Normal melting temperature [°C]
[1] | 234.49

COc1cc(-c2cc(-c3ccc(Cl)cc3)[nH]c(=O)c2C#N)ccc1O + C[S+](C)[O-]
[2]
Details | mass density, 298.15 K [kg/m3] | mass density, 308.15 K [kg/m3] | mass density, 318.15 K [kg/m3] | speed of sound, 298.15 K [m/s] | speed of sound, 308.15 K [m/s] | speed of sound, 318.15 K [m/s] | viscosity, 298.15 K [mPa·s] | viscosity, 308.15 K [mPa·s] | viscosity, 318.15 K [mPa·s]
m1 = 0.01 | 1096.42 | 1086.43 | 1076.43 | 1486.1 | 1452.4 | 1418.9 | 1.954 | 1.545 | 1.264
m1 = 0.02 | 1097.3 | 1087.47 | 1077.19 | 1487.2 | 1453.4 | 1419.9 | 1.993 | 1.571 | 1.294
m1 = 0.04 | 1098.53 | 1088.83 | 1078.52 | 1488.4 | 1454.7 | 1421 | 2.037 | 1.614 | 1.324
m1 = 0.06 | 1099.79 | 1089.98 | 1079.89 | 1489.6 | 1455.9 | 1422.2 | 2.081 | 1.655 | 1.355
m1 = 0.08 | 1100.99 | 1091.08 | 1080.99 | 1490.5 | 1456.7 | 1423.2 | 2.129 | 1.699 | 1.391
m1 = 0.1 | 1102.29 | 1092.32 | 1082.35 | 1491.1 | 1457.6 | 1424.5 | 2.172 | 1.73 | 1.427

COc1cc(-c2cc(-c3ccc(O)cc3)[nH]c(=O)c2C#N)ccc1O + C[S+](C)[O-]
[2]
Details | mass density, 298.15 K [kg/m3] | mass density, 308.15 K [kg/m3] | mass density, 318.15 K [kg/m3] | speed of sound, 298.15 K [m/s] | speed of sound, 308.15 K [m/s] | speed of sound, 318.15 K [m/s] | viscosity, 298.15 K [mPa·s] | viscosity, 308.15 K [mPa·s] | viscosity, 318.15 K [mPa·s]
m1 = 0.01 | 1096.12 | 1086.44 | 1076.45 | 1486.3 | 1452.4 | 1419 | 1.885 | 1.544 | 1.265
m1 = 0.02 | 1097.17 | 1087.19 | 1077.22 | 1487.3 | 1453.2 | 1420.1 | 1.963 | 1.576 | 1.312
m1 = 0.04 | 1098.34 | 1088.48 | 1078.49 | 1488.9 | 1454.5 | 1421.5 | 2.06 | 1.623 | 1.364
m1 = 0.06 | 1099.52 | 1089.69 | 1079.59 | 1490.6 | 1455.6 | 1422.7 | 2.144 | 1.663 | 1.392
m1 = 0.08 | 1100.69 | 1090.67 | 1080.74 | 1492 | 1456.5 | 1424 | 2.243 | 1.704 | 1.421
m1 = 0.1 | 1101.86 | 1091.98 | 1081.94 | 1493.7 | 1457.4 | 1425.1 | 2.323 | 1.729 | 1.462

COc1cc(-c2cc(-c3ccccc3)[nH]c(=O)c2C#N)ccc1O + C[S+](C)[O-]
[2]
Details | mass density, 298.15 K [kg/m3] | mass density, 308.15 K [kg/m3] | mass density, 318.15 K [kg/m3] | speed of sound, 298.15 K [m/s] | speed of sound, 308.15 K [m/s] | speed of sound, 318.15 K [m/s] | viscosity, 298.15 K [mPa·s] | viscosity, 308.15 K [mPa·s] | viscosity, 318.15 K [mPa·s]
m1 = 0.01 | 1096.02 | 1086.02 | 1076.08 | 1485.9 | 1451.9 | 1418.1 | 1.876 | 1.525 | 1.242
m1 = 0.02 | 1096.69 | 1086.78 | 1076.69 | 1486.8 | 1452.8 | 1419.1 | 1.916 | 1.562 | 1.276
m1 = 0.04 | 1097.59 | 1087.93 | 1077.85 | 1488 | 1453.9 | 1420.5 | 1.976 | 1.603 | 1.319
m1 = 0.06 | 1098.59 | 1088.74 | 1078.84 | 1489.1 | 1455 | 1421.6 | 2.02 | 1.638 | 1.345
m1 = 0.08 | 1099.69 | 1089.59 | 1079.75 | 1490.3 | 1456 | 1422.6 | 2.063 | 1.668 | 1.37
m1 = 0.1 | 1100.84 | 1090.64 | 1080.75 | 1491 | 1456.8 | 1423.7 | 2.107 | 1.697 | 1.41

COc1cc(-c2cc(-c3ccccc3O)[nH]c(=O)c2C#N)ccc1O + C[S+](C)[O-]
[2]
Details | mass density, 298.15 K [kg/m3] | mass density, 308.15 K [kg/m3] | mass density, 318.15 K [kg/m3] | speed of sound, 298.15 K [m/s] | speed of sound, 308.15 K [m/s] | speed of sound, 318.15 K [m/s] | viscosity, 298.15 K [mPa·s] | viscosity, 308.15 K [mPa·s] | viscosity, 318.15 K [mPa·s]
m1 = 0.01 | 1096.09 | 1086.41 | 1076.4 | 1486 | 1452.1 | 1418.6 | 1.88 | 1.535 | 1.247
m1 = 0.02 | 1097.16 | 1087.16 | 1077.18 | 1487 | 1453.1 | 1419.5 | 1.958 | 1.57 | 1.287
m1 = 0.04 | 1098.32 | 1088.47 | 1078.47 | 1488.6 | 1454.2 | 1420.8 | 2.037 | 1.608 | 1.327
m1 = 0.06 | 1099.5 | 1089.66 | 1079.56 | 1490.2 | 1455.2 | 1422 | 2.124 | 1.645 | 1.359
m1 = 0.08 | 1100.68 | 1090.65 | 1080.71 | 1491.7 | 1456.3 | 1423 | 2.201 | 1.685 | 1.399
m1 = 0.1 | 1101.83 | 1091.96 | 1081.9 | 1493.5 | 1457 | 1424.3 | 2.301 | 1.716 | 1.458

C[S+](C)[O-] [dimethyl sulfoxide]
[1]
Details | mass density [kg/m3] | speed of sound [m/s] | viscosity [mPa·s]
298.15 K | 1095.28 | 1484.8 | 1.814
308.15 K | 1085.23 | 1450.9 | 1.472
318.15 K | 1075.19 | 1417.4 | 1.176

C[S+](C)[O-] [dimethyl sulfoxide] + COc1cc(-c2cc(-c3ccc(Cl)cc3)[nH]c(=O)c2C#N)ccc1O
[2], m2 = 0
Details | mass density [kg/m3] | speed of sound [m/s] | viscosity [mPa·s]
298.15 K | 1095.28 | 1484.8 | 1.814
308.15 K | 1085.23 | 1450.9 | 1.472
318.15 K | 1075.19 | 1417.4 | 1.176

C[S+](C)[O-] [dimethyl sulfoxide] + COc1cc(-c2cc(-c3ccc(O)cc3)[nH]c(=O)c2C#N)ccc1O
[2], m2 = 0
Details | mass density [kg/m3] | speed of sound [m/s] | viscosity [mPa·s]
298.15 K | 1095.28 | 1484.8 | 1.814
308.15 K | 1085.23 | 1450.9 | 1.472
318.15 K | 1075.19 | 1417.4 | 1.176

C[S+](C)[O-] [dimethyl sulfoxide] + COc1cc(-c2cc(-c3ccccc3)[nH]c(=O)c2C#N)ccc1O
[2], m2 = 0
Details | mass density [kg/m3] | speed of sound [m/s] | viscosity [mPa·s]
298.15 K | 1095.28 | 1484.8 | 1.814
308.15 K | 1085.23 | 1450.9 | 1.472
318.15 K | 1075.19 | 1417.4 | 1.176

C[S+](C)[O-] [dimethyl sulfoxide] + COc1cc(-c2cc(-c3ccccc3O)[nH]c(=O)c2C#N)ccc1O
[2], m2 = 0
Details | mass density [kg/m3] | speed of sound [m/s] | viscosity [mPa·s]
298.15 K | 1095.28 | 1484.8 | 1.814
308.15 K | 1085.23 | 1450.9 | 1.472
318.15 K | 1075.19 | 1417.4 | 1.176
